# Values of other authors in PMC8305651 (International Journal of Molecular Sciences, 2021).
# Conditions: cited from earlier work
smiles,measurement,value
O=c1cc(-c2ccc(O)c(O)c2)oc2cc(O)cc(O)c12 [luteolin],bioavailability,low bioavailability
